Legend:
[1] = In vivo biodistribution in nu/nu mice; settings: for 225Ac Biodistribution, Blood / 225Ac Biodistribution, Bone / 225Ac Biodistribution, Kidneys / 225Ac Biodistribution, Liver: average; for pattern of distribution: intraperitoneal, approx. 2 μCi, nu/nu mice, period of 5 days
Description: Counting was carried out half an hour after sample preparation.

[2] = in vivo; cited from earlier work
[3] = target: T1, antigen excess (HuM195 is anti-CD33) (Homo sapiens, UniProt P20138); test: Cell-based immunoreactivity study (binding of labeled antibody to antigen excess)
T1 construct: host or cells: unnamed antigen-bearing cells
T1 sequence (P20138 18-364): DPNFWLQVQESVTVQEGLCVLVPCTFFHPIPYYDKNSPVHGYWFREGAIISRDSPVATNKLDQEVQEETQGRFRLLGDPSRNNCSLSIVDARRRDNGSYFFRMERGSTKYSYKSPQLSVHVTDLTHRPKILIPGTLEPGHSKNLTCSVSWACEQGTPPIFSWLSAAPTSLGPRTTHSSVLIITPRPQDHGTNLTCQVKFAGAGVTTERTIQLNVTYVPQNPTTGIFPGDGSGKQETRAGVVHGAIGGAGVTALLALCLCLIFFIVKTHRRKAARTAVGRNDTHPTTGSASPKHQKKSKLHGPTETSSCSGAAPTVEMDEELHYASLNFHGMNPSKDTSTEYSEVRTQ

[4] = test system: antigen negative cell line; test: In-vitro cell kill (3H-thymidine incorporation), antigen negative cell line; type: cell-based
[5] = test system: target cells; test: Internalization of isotope into target cells; type: cell-based; settings: in 5 hours
[6] = test system: antigen positive cell line; test: In-vitro cell kill (3H-thymidine incorporation), antigen positive cell line; type: cell-based

Compound | 225Ac Biodistribution, Blood ([1]; 1 d) [% dose/g] | 225Ac Biodistribution, Blood ([1]; 2 d) [% dose/g] | 225Ac Biodistribution, Blood ([1]; 5 d) [% dose/g] | 225Ac Biodistribution, Bone ([1]; 1 d) [% dose/g] | 225Ac Biodistribution, Bone ([1]; 2 d) [% dose/g] | 225Ac Biodistribution, Bone ([1]; 5 d) [% dose/g] | 225Ac Biodistribution, Kidneys ([1]; 1 d) [% dose/g] | 225Ac Biodistribution, Kidneys ([1]; 2 d) [% dose/g] | 225Ac Biodistribution, Kidneys ([1]; 5 d) [% dose/g] | 225Ac Biodistribution, Liver ([1]; 1 d) [% dose/g] | 225Ac Biodistribution, Liver ([1]; 2 d) [% dose/g] | 225Ac Biodistribution, Liver ([1]; 5 d) [% dose/g] | pattern of distribution [1] | excretion [2] | liver uptake [2] | immunoreactive fraction [3] [%] | LD50 in a 2-day assay [4] | isotope internalized in the target cells [5] | LD50 in a 2-day assay ([6]; 2-day assay, positive cell line) | LD50 in a 5-day assay ([6]; 5-day assay, specific activity of 0.035 Ci/g, 3H-thymidine incorporation) [nCi/ml]
CC(=O)[O-].CC(=O)[O-].CC(=O)[O-].[225Ac+3] [^225Ac Acetate, reference compound] | 0.1 | 0.2 | 0.0 | 13.3 | 12.0 | 17.1 | 3.8 | 3.2 | 2.8 | 46.6 | 43.1 | 68.5 | held up in the liver and bone but cleared from blood |  |  |  |  |  |  | 
O=P(O)(O)CN(CCN(CP(=O)(O)O)CP(=O)(O)O)CP(=O)(O)O [^225Ac-EDTMP, ethylenediaminetetra-methylenephosphonic acid, metal not drawn] |  |  |  |  |  |  |  |  |  |  |  |  |  | poor | still substantial |  |  |  |  | 
^225Ac-HuM195-MeO-DOTA | 10.1 | 10.2 | 4.5 | 3.8 | 4.1 | 5.3 | 4.6 | 5.2 | 4.6 | 8.8 | 10.0 | 20.7 | longer blood circulation time and less bone uptake |  |  | ~70 | about 28 nCi/ml | more than 50% | about 1.4 nCi/ml | ~0.3

— patent US20030086868A1, “Actinium-225 complexes and conjugates for radioimmunotherapy” (priority 2002, published 2003)
